# From US12084472B2 (Ardelyx, Inc., priority 2015, dated 2024)
# Molecular target: T1, human TGR5 (Homo sapiens, UniProt Q8TDU6)
# T1 construct: expressed in transfected cells; host or cells: HEK293
# T1 sequence (Q8TDU6 1-330): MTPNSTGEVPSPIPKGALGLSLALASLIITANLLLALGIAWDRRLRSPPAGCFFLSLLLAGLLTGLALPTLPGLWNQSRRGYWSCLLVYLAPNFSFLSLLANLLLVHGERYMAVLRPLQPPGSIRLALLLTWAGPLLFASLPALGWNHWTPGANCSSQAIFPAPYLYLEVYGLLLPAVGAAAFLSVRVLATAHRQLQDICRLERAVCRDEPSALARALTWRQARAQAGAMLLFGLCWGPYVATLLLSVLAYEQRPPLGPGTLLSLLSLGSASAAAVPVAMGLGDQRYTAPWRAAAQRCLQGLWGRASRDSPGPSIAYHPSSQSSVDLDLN
# Assay: Cell-based TGR5 assay (cAMP generation, HTRF)
# Settings: HEK293 cells stably transfected with human TGR5; cAMP by HTRF; 30 minutes at 37° C.; read-out: pEC50 Human TGR5 (converted)
# How it was run: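 First, compounds in 3-fold serial dilution were placed in HBSS with 10 mM HEPES pH 7.4 and 0.5 mM IBMX. Next, human TGR5-expressing HEK293 cells were added and incubated 30 min at 37° C. Finally, cAMP was detected by HTRF and pEC50 derived by logistic fitting.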
row,Compound,EC50 [nM]
1,"CS(=O)(=O)CCCN(CCCCSc1ccc(Cl)c(CNC2(c3cnccc3-c3ccccc3OC3CC3)CC2)c1)C(=O)[C@@H](O)[C@@H](O)[C@H](O)[C@@H](O)CO [Compound I-532, (2S,3S,4R,5S)-N-[4-({4-chloro-3-[({1-[4-(2-cyclopropoxyphenyl)pyridin-3-yl]cyclopropyl}amino)methyl]phenyl}sulfanyl)butyl]-2,3,4,5,6-pentahydroxy-N-(3-methanesulfonylpropyl) hexanamide]",< 100
2,"CS(=O)(=O)CCCN(CCCSc1ccc(Cl)c(CNC2(c3cnccc3-c3ccccc3OC3CC3)CC2)c1)C(=O)[C@@H](O)[C@@H](O)[C@H](O)[C@@H](O)CO [Compound I-525, (2S,3S,4R,5S)-N-[3-({4-chloro-3-[({1-[4-(2-cyclopropoxyphenyl)pyridin-3-yl]cyclopropyl}amino)methyl]phenyl}sulfanyl)propyl]-2,3,4,5,6-pentahydroxy-N-(3-methanesulfonylpropyl) hexanamide]",126 to 1000
3,"CCS(=O)(=O)CCN(CCCC(C)c1ccc(Cl)c(COC2(c3cnccc3-c3ccccc3OC3CC3)CC2)c1)C(=O)[C@@H](O)[C@@H](O)[C@H](O)[C@@H](O)CO (stereo partly drawn) [Compound I-310, (2S,3S,4R,5S)-N-{4-[4-chloro-3-({1-[4-(2-cyclopropoxyphenyl)pyridin-3-yl]cyclopropoxy}methyl)phenyl]pentyl}-N-[2-(ethanesulfonyl)ethyl]-2,3,4,5,6-pentahydroxyhexanamide]",< 100
4,"CCS(=O)(=O)CCN(CCCCCc1cc(Cl)c(COC2(c3cnccc3-c3ccccc3OC3CC3)CC2)cc1Cl)C(=O)[C@@H](O)[C@@H](O)[C@H](O)[C@@H](O)CO (stereo in doubt) [Compound I-227, (2S,3S,4R,5S)-N-{5-[2,5-dichloro-4-({1-[4-(2-cyclopropoxyphenyl)pyridin-3-yl]cyclopropoxy}methyl)phenyl]pentyl}-N-[2-(ethanesulfonyl)ethyl]-2,3,4,5,6-pentahydroxyhexanamide]",< 100
5,"NC(=O)N(Cc1cc(Cl)ccc1Cl)C1(c2cnccc2-c2ccccc2OC2CC2)CC1 [Compound I-57, 1-[1-[4-(2-cyclopropoxyphenyl)pyridin-3-yl]cyclopropyl]-1-[(2,5-dichloro-phenyl)methyl]urea]",1260 to 10000
6,"CSc1cnc(C)cc1CNC1(c2cnccc2-c2ccccc2OC2CC2)CC1 [Compound I-42, 1-[4-(2-cyclopropoxyphenyl)pyridin-3-yl]-N-{[2-methyl-5-(methylsulfanyl)pyridin-4-yl]methyl}cyclopropan-1-amine]",< 100
7,"Cc1ccc(CCCCC(=O)N(C)C[C@H](O)[C@@H](O)[C@H](O)[C@H](O)CO)cc1CNC1(c2cnccc2-c2ccccc2OC2CC2)CC1 (stereo in doubt) [Compound I-238, 5-{3-[({1-[4-(2-cyclopropoxyphenyl)pyridin-3-yl]cyclopropyl}amino)methyl]-4-methylphenyl}-N-methyl-N-[(2S,3R,4R,5R)-2,3,4,5,6-pentahydroxyhexyl]pentanamide]",126 to 1000
8,"CC(OCc1cc(Cl)ccc1Cl)c1cnccc1-c1ccccc1OC1CC1 (stereo not shown) [Compound I-745, 4-(2-cyclopropoxyphenyl)-3-(1-((2,5-dichlorobenzyl)oxy)ethyl)pyridine]",126 to 1000
9,"COCCN(C[C@H](O)[C@@H](O)[C@H](O)[C@H](O)CO)C(=O)CCCCc1cc(Cl)c(COC2(c3cnccc3-c3ccccc3OC3CC3)CC2)cc1Cl [Compound I-127, 5-[2,5-dichloro-4-({1-[4-(2-cyclopropoxyphenyl)pyridin-3-yl]cyclopropoxy}methyl)phenyl]-N-(2-methoxyethyl)-N-[(2S,3R,4R,5R)-2,3,4,5,6-pentahydroxyhexyl]pentanamide]",< 100
10,"CN(CCCCNC(=O)N[C@@H](CO)[C@@H](O)[C@@H](O)[C@H](O)CO)S(=O)(=O)c1ccc(Cl)c(COC2(c3cnccc3-c3ccccc3OC3CC3)CC2)c1 [Compound I-776, 4-chloro-3-((1-(4-(2-cyclopropoxyphenyl)pyridin-3-yl)cyclopropoxy)methyl)-N-methyl-N-(4-(3-((2S,3R,4R,5R)-1,3,4,5,6-pentahydroxyhexan-2-yl)ureido)butyl)benzenesulfonamide]",< 100
11,"Clc1cc(Cl)cc(COC2(c3cnccc3-c3ccccc3OC3CC3)CC2)c1 [Compound I-56, 4-(2-cyclopropoxyphenyl)-3-{1-[(3,5-dichlorophenyl)methoxy]cyclopropyl}pyridine]",1260 to 10000
12,"O=C(CCCSc1ccc(Cl)c(COC2(c3cnccc3-c3ccccc3OC3CC3)CC2)c1)N(C[C@H](O)[C@@H](O)[C@H](O)[C@H](O)CO)C1CCOCC1 [Compound I-669, 4-{[4-chloro-3-({1-[4-(2-cyclopropoxyphenyl)pyridin-3-yl]cyclopropoxy}methyl)phenyl]sulfanyl}-N-(oxan-4-yl)-N-[(2S,3R,4R,5R)-2,3,4,5,6-pentahydroxyhexyl]butanamide]",126 to 1000
13,"Cc1ccccc1-c1ccncc1C1(NCc2cc(Cl)ccc2Cl)CC1 [Compound I-6, N-[(2,5-dichlorophenyl)methyl]-1-[4-(2-methylphenyl)pyridin-3-yl]cyclopropan-1-amine]",126 to 1000
14,"CN(C)C[C@H](NC(=O)CCCCc1cc(Cl)c(COC2(c3cnccc3-c3ccccc3OC3CC3)CC2)cc1Cl)[C@@H](O)[C@H](O)[C@H](O)CO [Compound I-165, 5-[2,5-dichloro-4-({1-[4-(2-cyclopropoxyphenyl)pyridin-3-yl]cyclopropoxy}methyl)phenyl]-N-[(2S,3R,4S,5R)-1-(dimethylamino)-3,4,5,6-tetrahydroxyhexan-2-yl]pentanamide]",< 100
15,"CC(=O)N(CCCCSc1ccc(Cl)c(CNC2(c3cnccc3-c3ccccc3OC3CC3)CC2)c1)C[C@H](O)[C@@H](O)[C@H](O)[C@H](O)CO [Compound I-503, N-[4-({4-chloro-3-[({1-[4-(2-cyclopropoxyphenyl)pyridin-3-yl]cyclopropyl}amino)methyl]phenyl}sulfanyl)butyl]-N-[(2S,3R,4R,5R)-2,3,4,5,6-pentahydroxyhexyl]acetamide]",< 100

# Next, values leading:
row,EC50 [nM],Compound
1,< 100,"O=C(NCCCSc1ccc(Cl)c(CNC2(c3cnccc3-c3ccccc3OC3CC3)CC2)c1)NC[C@H](O)[C@@H](O)[C@H](O)[C@H](O)CO [Compound I-622, 1-[3-({4-chloro-3-[({1-[4-(2-cyclopropoxyphenyl)pyridin-3-yl]cyclopropyl}amino)methyl]phenyl}sulfanyl)propyl]-3-[(2S,3R,4R,5R)-2,3,4,5,6-pentahydroxyhexyl]urea]"
2,< 100,"CC(C)CN(CCCCNC(=O)N[C@@H](CO)[C@@H](O)[C@H](O)[C@H](O)CO)S(=O)(=O)c1ccc(Cl)c(COC2(c3cnccc3-c3ccccc3OC3CC3)CC2)c1 [Compound I-761, 4-chloro-3-((1-(4-(2-cyclopropoxyphenyl)pyridin-3-yl)cyclopropoxy)methyl)-N-isobutyl-N-(4-(3-((2S,3R,4S,5R)-1,3,4,5,6-pentahydroxyhexan-2-yl)ureido)butyl)benzenesulfonamide]"
3,< 100,"O=C(O)[C@@H](O)[C@@H](O)[C@H](O)[C@@H](O)CNC1CCN(C(=O)CCCCc2cc(Cl)c(COC3(c4cnccc4-c4ccccc4OC4CC4)CC3)cc2Cl)CC1 (stereo in doubt) [Compound I-173, (2S,3S,4R,5S)-6-[(1-{5-[2,5-dichloro-4-({1-[4-(2-cyclopropoxyphenyl)pyridin-3-yl]cyclopropoxy}methyl)phenyl]pentanoyl}piperidin-4-yl)amino]-2,3,4,5-tetrahydroxyhexanoic acid]"
4,126 to 1000,"CCc1ccc(SCCCC(=O)N(C)C[C@H](O)[C@@H](O)[C@H](O)[C@H](O)CO)cc1COC1(c2cnccc2-c2ccccc2OC2CC2)CC1 [Compound I-691, 4-{[3-({1-[4-(2-cyclopropoxyphenyl)pyridin-3-yl]cyclopropoxy}methyl)-4-ethylphenyl]sulfanyl}-N-methyl-N-[(2S,3R,4R,5R)-2,3,4,5,6-pentahydroxyhexyl]butanamide]"
5,< 100,"O=C(CCCCc1ccc(Cl)c(CNC2(c3cnccc3-c3ccccc3OC3CC3)CC2)c1)NC[C@H](O)[C@@H](O)[C@H](O)[C@H](O)CO (stereo in doubt) [Compound I-233, 5-{4-chloro-3-[({1-[4-(2-cyclopropoxyphenyl)pyridin-3-yl]cyclopropyl}amino)methyl]phenyl}-N-[(2S,3R,4R,5R)-2,3,4,5,6-pentahydroxyhexyl]pentanamide]"
6,< 100,"O=C(CCCCCCNS(=O)(=O)c1ccc(Cl)c(COC2(c3cnccc3-c3ccccc3OC3CC3)CC2)c1)NC[C@H](O)[C@@H](O)[C@H](O)[C@H](O)CO [Compound I-432, 7-[4-chloro-3-({1-[4-(2-cyclopropoxyphenyl)pyridin-3-yl]cyclopropoxy}methyl)benzenesulfonamido]-N-[(2S,3R,4R,5R)-2,3,4,5,6-pentahydroxyhexyl]heptanamide]"
7,< 100,"CC(C)N(CCCCNC(=O)[C@@H](O)[C@@H](O)[C@H](O)[C@@H](O)CO)S(=O)(=O)c1cc(COC2(c3cnccc3-c3ccccc3OC3CC3)CC2)c(Cl)cc1F [Compound I-728, (2S,3S,4R,5S)-2,3,4,5,6-pentahydroxy-N-[4-[N-(propan-2-yl)[4-chloro-5-([1-[4-(2-cyclopropoxyphenyl)pyridin-3-yl]cyclopropoxy]methyl)-2-fluorobenzene]sulfonamido]butyl]hexanamide]"
